From PubChem BioAssay AID2305 (GlaxoSmithKline (GSK), 2010) come the findings set out here.

The assay deals with P. falciparum 3D7 growth, pLDH absorbance. As to the kind of experiment: blood-stage malaria parasite growth potency – strain 3D7, dose response (AID 2305).
`CC[C@H]1CN2CCc3cc(OC)c(OC)cc3[C@@H]2C[C@@H]1CC1=NCCc2c1[nH]c1ccc(OCc3ccccc3)cc21` gave an IC50 of 770 nM. `CN(Cc1cccc(F)c1)C1CCN(c2cc(NC(=O)c3cccc(F)c3)ccn2)CC1` displayed an IC50 of 1160 nM. This IC50 lies about 1.5-fold higher than the previous one. Regarding `CN(C)CCOc1ccc(NC(=O)NC(C)(C)c2nc(-c3ccc(Cl)c(O)c3)c(-c3ccncc3)[nH]2)cc1`, the IC50 came out at 110 nM. For `O=C(Nc1ccc(Cl)cc1)OCCn1nnnc1C(c1ccc(Cl)cc1)N1CCOCC1` (configuration not stated), the IC50 came to 1180 nM. Consider `O=C(Nc1cccc(C(F)(F)F)c1)Nc1ccc(Cl)c(C(F)(F)F)c1`, for which the 50% inhibitory concentration (IC50) stood at 890 nM.

Take `N#Cc1ccc2c(c1)CCN(CCC1CCC(NC(=O)c3cc4cccc([N+](=O)[O-])c4[nH]3)CC1)C2` (configuration not stated): the IC50 is 680 nM. This IC50 and that of the compound before are within 1.5-fold of each other.

`CC(=O)Nc1ccc(OCCCCN(Cc2ccccc2C(F)(F)F)c2ccc(C(F)(F)F)c(C#N)c2)c(Cl)c1`: the IC50 came to 550 nM. As for `CC(C)(C)c1ccc(NC(=O)c2ccc(CN3CCCN(Cc4cccc(F)c4)CC3)cc2)cc1`, the IC50 was 1120 nM.

Compound `CC1(CCc2ccccc2)N=C(N)N=C(N)C1c1ccc(Cl)c(Cl)c1` (configuration not stated) gave an IC50 of 320 nM.

`CC(C)CC(C)NC(=O)C1Cc2c([nH]c3ccc(F)cc23)C2(CCN(Cc3ccccc3)CC2)N1` (configuration not stated): the IC50 was determined as 970 nM. In the case of `O=[N+]([O-])c1ccc(-n2nc(Cc3ccccc3)n(Cc3cccc(F)c3)c2=S)c(C(F)(F)F)c1` it was 770 nM; in that of `N#Cc1ccc(-c2ccc(C(=O)NC3CCN(CCN4CCc5c(cccc5C(F)(F)F)C4)CC3)cc2)cc1`, 700 nM.

Compound `CC(=O)Nc1ncc(C(=O)Nc2cccc(-c3cccc(-c4nc5ccccc5[nH]4)c3)c2)s1` displayed an IC50 of 810 nM. In the case of `CN(C)CCOc1ccc(-c2cc(-c3ccncc3)c(-c3ccc(Cl)c(O)c3)[nH]2)cc1` it was 220 nM; in that of `Cc1c(C2CCN(CCCCNC(=O)c3ccc(-c4ccc(C#N)cc4)cc3)CC2)c2ccccc2n1CCO`, 1000 nM. Turning to `CN1CCCC(CN2CCN(Cc3ccc(-c4ccc(-c5nc6ccccc6[nH]5)s4)cc3)CC2)C1` (configuration not stated), the IC50 amounted to 130 nM.

In turn, `Nc1nc(N)c2cc(N(Cc3ccccc3)Cc3ccccc3)ccc2n1` came in with an IC50 of 610 nM.

Turning to `CCc1c[nH]c2c(N3CCCS3(=O)=O)cc(C(=O)N[C@@H](Cc3ccccc3)[C@H](O)CNC3CCCCC3)cc12`, the half-maximal inhibitory concentration (IC50) was found to be 770 nM. For `COc1cc(C=NNc2ccnc3cc(Cl)ccc23)ccc1O`, the IC50 came to 130 nM. `Cc1[nH]c(C)c(-c2ccc(OCc3ccc(OC(F)(F)F)cc3)nc2)c(=O)c1Cl` returned an IC50 of 70 nM. `COC(=O)c1ccc(CCCNCC(O)c2cccc(C(F)(F)F)c2)cc1` (configuration not stated): the concentration for half-maximal inhibition (IC50) worked out at 800 nM. With `Cc1cc(F)ccc1-c1nc(N(C)CCN(C)C(=O)N(C)c2ccccc2)nc2c1ccc(=O)n2-c1c(F)cccc1F`, the IC50 is 1240 nM. In turn, `Cc1cc(N)c2cc(NC(=O)c3cc(C(F)(F)F)cc(C(F)(F)F)c3)ccc2n1` gave an IC50 of 90 nM. In the case of `c1ccc(Oc2ccc(Nc3ccnc(Nc4ccc(OCCN5CCCCC5)cc4)n3)cc2)cc1` it was 600 nM; in that of `COc1ccc(N2CCN(CCCCNC(=O)c3ccc(NC(=O)c4cc(C(F)(F)F)cc(C(F)(F)F)c4)cc3)CC2)c(OC)c1`, 150 nM. `COc1ccc2nc3cc(Cl)ccc3c(Nc3ccc(C(=O)O)cc3)c2c1` returned an IC50 of 300 nM.

As to `Fc1cccc(COc2ccc(Nc3ncnc4ccc(-c5nnc(C(F)(F)F)o5)cc34)cc2Cl)c1`, the IC50 is 580 nM. Take `O=C(Nc1ccc(S(=O)(=O)N2CCCCCC2)cc1)c1cc(-c2ccccc2O)n[nH]1`: the half-inhibitory concentration (IC50) stood at 720 nM.

Turning to `Cc1nc(-c2ccc(-c3ccc(C(=O)Nc4ccc5c(c4)C4(CCNCC4)CO5)cc3)c(C)c2)no1`, the IC50 came to 860 nM. For the compound `CCCNC[C@@H](O)[C@H](Cc1ccccc1)NC(=O)c1cc(NCC)cc(N2CCCCS2(=O)=O)c1`, the IC50 stood at 220 nM. Against the preceding compound, the IC50 is about 3.9-fold lower.

For `C(=N\Nc1nccc2sc(-c3cccnc3)cc12)/c1cccnc1`, the IC50 came out at 420 nM. `Cc1[nH]c(C)c(-c2ccc(Oc3ccc(Cl)cc3Cl)cc2)c(=O)c1Br` showed an IC50 of 300 nM.

The term IC50 denotes the point on the concentration scale where inhibition reaches its midpoint. A high value points to weaker potency.
